One test addresses T1, TLR8 (Homo sapiens, UniProt Q9NR97).
T1 construct: host or cells: HEK-Blue cells (human HEK) co-expressing TLR8 and an NF-kB/AP1-inducible SEAP reporter
T1 sequence (Q9NR97 27-1041): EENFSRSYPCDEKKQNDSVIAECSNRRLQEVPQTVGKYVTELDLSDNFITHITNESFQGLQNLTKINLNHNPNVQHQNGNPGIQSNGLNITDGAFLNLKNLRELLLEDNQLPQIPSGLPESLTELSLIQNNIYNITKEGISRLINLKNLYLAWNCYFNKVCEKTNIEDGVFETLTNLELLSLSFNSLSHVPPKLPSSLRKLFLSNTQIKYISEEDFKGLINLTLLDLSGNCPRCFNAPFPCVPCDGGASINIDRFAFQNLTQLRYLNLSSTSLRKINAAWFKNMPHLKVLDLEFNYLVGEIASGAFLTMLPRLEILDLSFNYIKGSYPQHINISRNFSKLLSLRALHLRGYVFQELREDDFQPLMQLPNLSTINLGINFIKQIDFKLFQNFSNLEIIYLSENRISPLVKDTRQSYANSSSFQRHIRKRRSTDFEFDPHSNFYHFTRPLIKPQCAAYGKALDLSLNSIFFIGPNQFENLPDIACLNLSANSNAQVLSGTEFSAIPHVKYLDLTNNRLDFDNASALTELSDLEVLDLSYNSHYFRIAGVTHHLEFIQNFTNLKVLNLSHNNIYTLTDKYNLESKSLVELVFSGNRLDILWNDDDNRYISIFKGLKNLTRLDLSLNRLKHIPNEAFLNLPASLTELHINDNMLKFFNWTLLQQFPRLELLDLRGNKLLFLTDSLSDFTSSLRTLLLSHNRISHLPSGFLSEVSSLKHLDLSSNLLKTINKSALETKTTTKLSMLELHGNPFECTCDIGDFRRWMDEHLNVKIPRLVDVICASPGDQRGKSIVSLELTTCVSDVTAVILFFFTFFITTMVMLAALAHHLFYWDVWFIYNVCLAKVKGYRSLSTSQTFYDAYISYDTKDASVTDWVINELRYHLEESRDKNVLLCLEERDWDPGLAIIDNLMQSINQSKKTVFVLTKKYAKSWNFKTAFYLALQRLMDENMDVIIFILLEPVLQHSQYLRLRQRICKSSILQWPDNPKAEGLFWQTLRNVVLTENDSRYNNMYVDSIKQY
Description: In vitro human TLR8 binding reporter assay (HEK-Blue, NF-kB/AP1-inducible SEAP). The note with it: activity range symbols. The test is classed as cell-based. An outline of the steps:
(§1)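 Reporter cells are plated at 15,000 per well and rested 24 h. Next day, test compounds or DMSO are dispensed, followed by 18 h incubation at 37 °C, 5% CO2.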
Background: Reporter assays use an easily measured gene product as a stand-in for the process of interest.

In another test the target is T2, TLR7 (Homo sapiens, UniProt Q9NYK1).
T2 construct: host or cells: HEK-Blue cells (human HEK) co-expressing TLR7 and an NF-kB/AP1-inducible SEAP reporter
T2 sequence (Q9NYK1 27-1049): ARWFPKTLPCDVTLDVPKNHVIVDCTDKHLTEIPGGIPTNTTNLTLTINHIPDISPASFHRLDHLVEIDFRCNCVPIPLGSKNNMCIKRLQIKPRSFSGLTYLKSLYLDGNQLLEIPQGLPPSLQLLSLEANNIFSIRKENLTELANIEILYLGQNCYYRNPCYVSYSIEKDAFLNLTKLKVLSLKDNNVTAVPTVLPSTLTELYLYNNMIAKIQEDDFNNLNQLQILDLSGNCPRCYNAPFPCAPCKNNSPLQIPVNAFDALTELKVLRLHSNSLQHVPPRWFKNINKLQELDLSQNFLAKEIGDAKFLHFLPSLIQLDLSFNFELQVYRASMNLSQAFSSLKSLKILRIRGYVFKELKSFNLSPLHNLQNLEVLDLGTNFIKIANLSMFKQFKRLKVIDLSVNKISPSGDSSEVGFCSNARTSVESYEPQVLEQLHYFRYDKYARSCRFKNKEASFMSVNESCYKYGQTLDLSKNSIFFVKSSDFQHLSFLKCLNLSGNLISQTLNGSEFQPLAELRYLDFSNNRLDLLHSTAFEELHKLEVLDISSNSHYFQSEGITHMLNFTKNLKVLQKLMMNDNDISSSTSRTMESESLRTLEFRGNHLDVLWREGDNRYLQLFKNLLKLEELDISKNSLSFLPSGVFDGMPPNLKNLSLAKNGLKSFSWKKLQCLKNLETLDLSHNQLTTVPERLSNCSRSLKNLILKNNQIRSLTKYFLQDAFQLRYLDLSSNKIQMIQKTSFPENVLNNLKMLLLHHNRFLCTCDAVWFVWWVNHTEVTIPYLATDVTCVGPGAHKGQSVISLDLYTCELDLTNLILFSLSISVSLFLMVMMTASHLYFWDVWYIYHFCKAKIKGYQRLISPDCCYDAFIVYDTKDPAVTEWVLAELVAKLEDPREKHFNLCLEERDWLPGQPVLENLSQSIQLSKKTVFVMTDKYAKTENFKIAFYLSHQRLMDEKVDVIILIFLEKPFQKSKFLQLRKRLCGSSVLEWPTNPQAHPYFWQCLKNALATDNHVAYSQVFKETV
Description: In vitro human TLR7 binding reporter assay (HEK-Blue, NF-kB/AP1-inducible SEAP). Format: cell-based. As to conditions: activity range symbols. Summed up:
as §1

What is called EC50 is the midpoint of the concentration-response curve. Read a low EC50 as a more potent agent. For `CCC(=O)N(CC)Cc1nc2c(N)nc3cc(-n4cccn4)ccc3c2n1CC` [Compound 481, N-{[4-amino-1-ethyl-7-(1H-pyrazol-1-yl)-1H-imidazo[4,5-c]quinolin-2-yl]methyl}-N-ethylpropanamide], the EC50 at TLR8 and at TLR7 was more than 100 µM in each case.
Take `CCN(Cc1nc2c(N)nc3cc(-c4cccs4)ccc3c2n1CCO)C(C)=O` [Compound 482, N-{[4-amino-1-(2-hydroxyethyl)-7-(thiophen-2-yl)-1H-imidazo[4,5-c]quinolin-2-yl]methyl}-N-ethylacetamide]: the EC50 on TLR8 and on TLR7 was more than 100 µM each time.

The values above are taken from US12351580B2, “NLRP3 modulators” (Innate Tumor Immunity, Inc., priority 2017, dated 2025).
